# Laboratory results from patent US6452005B1, “JAK-3 inhibitors for treating allergic disorders” (Parker Hughes Institute, priority 1999, dated 2002).
# Columns and labels:
# BALB/c mice = assay: Toxicity studies in mice; type: in vivo
# Protocol: Toxicity Studies in Mice. […] Female BALB/c mice were used and monitored daily for lethargy, cleanliness and morbidity. At the time of death, necropsies were performed and the toxic effects of WHI-P131 administration were assessed. For histopathologic studies, tissues were fixed in 10% neutral buffered formalin, dehydrated, and embedded in paraffin by routine methods. Glass slides with affixed 6 micron tissue sections were prepared and stained with Hemotoxylin and Eosin (H&E). Female BALB/c mice were administered an i.p. bolus injection of WHI-P131 in 0.2 ml PBS supplemented with 10% DMSO, or 0.2 ml PBS supplemented with 10% DMSO alone (control mice). No sedation or anesthesia was used throughout the treatment period. Mice were monitored daily for mortality for determination of the day 30 LD50 values. Mice surviving until the end of the 30 days monitoring were sacrificed and the tissues were immediately collected from randomly selected mice, and preserved in 10% neutral buffered formalin. Standard tissues collected for histologic evaluation included: bone, bone marrow, brain, cecum, heart, kidney, large intestine, liver, lung, lymph node, ovary, pancreas, skeletal muscle, skin, small intestine, spleen, stomach, thymus, thyroid gland, urinary bladder, and uterus (as available).
# RBL-2H3 mast cells = assay: IgE/antigen-induced degranulation and mediator release; type: cell-based, rat; conditions: 1 h preincubation, DNP-BSA challenge; at ≧30 μM
# Excerpt: Vehicle treated control RBL-2H3 cells released 45.1±3.1% of their hexosaminidase contents after DNP-BSA challenge. […] Vehicle treated control cells released 11.3±1.3 pg LTC4, and 160±33.0 pg TNFα/10^6 mast cells. The results on LTC4 and TNFα release are expressed as percent of maximum control release from vehicle treated control mast cells. The data points represent the mean±SEM values obtained from 3-6 independent experiments. […] *P<0.05 and **P<0.0001 compared to control as determined by Student's t test.
# Supernatants were removed and saved.
# RBL-2H3 cells = assay: Calcium mobilization assay (Fluo-3); type: cell-based, rat
# Protocol: IgE sensitized RBL-2H3 cells were loaded with 1 μM Fluo-3 for 1 hour as described in the Examples below. The cells were then challenged with DNP-BSA or ionomycin and change in fluorescence was recorded. To study the effect of WHI-P131 on intracellular calcium mobilization, IgE-sensitized and Fluo-3 loaded RBL-2H3 cells were incubated with 3 μM, 12 μM or 30 μM WHI-P131 for 5 minutes prior to challenge with DNP-BSA or ionomycin.
# Calcium Measurement: Calcium mobilization assay was performed as described earlier (Zhu et. al., 1998, Clin. Cancer Res., 4:2967-2976). RBL-2H3 cells were loaded with Fluo-3 and stimulated with DNP-BSA in presence and absence of WJI-P131 as described above. Calcium response was measured by an calcium imaging device (Universal Imaging Co., West Chester, Pa.) mounted onto a inverted microscope. The exitation wavelength was 485 nm and the emission wavelength for detection was 535 nm. The fluorescent image of an individual cell was acquired by a CCD72 video camera (Dage-MTI Inc., Michigan City, Ill.) at the speed of 1 frame/s and digitized by computer.
# human mast cells = conditions: IgE-sensitized, anti-IgE challenge, 30 minutes exposure
# Protocol: Human Mast Cells: Cells from human fetal livers (16 to 21 weeks of gestational age) were cultured for 5 weeks in the presence of 50 ng/ml rhSCF, 2 ng/ml rhlL-4 (Xia et. al., 1997, J. Immunol., 159:2911-2921). Culture medium was replaced with fresh medium once a week for the first 2 weeks and twice a week thereafter. At the end of the 5 weeks, the fetal liver derived cell cultures contained>70% mast cells, based on tryptase staining (Irani et. al., 1989, J. Histochem. Cytochem, 37:1509-1515).
# Fetal liver derived human mast cells were resuspended in tyrode buffer containing calcium and magnesium and challenged with anti-FcεRI antibody 22E7 for 15 minutes. […]
# Leukotriene (LT) C4 levels were estimated in cell free supernatants by immunoassay (Malaviya et. al., 1993, J. Biol. Chem., 268:4939-4944). […] Tryptase levels were quantitated in cell free supernatants and pellets of fetal liver derived human mast cells as has been described in detail (Xia et. al., 1997, J. Immunol., 159:2911-2921).
# Fetal liver derived human mast cells were cultured in presence of SCF and IL-4 for 5 weeks. […] The FcεRI receptors of fetal liver derived human mast cells were crosslinked with anti-IgE and the resulting mast cell degranulation (i.e., β-tryptase) (Xia et. al., 1997, J. Immunol., 159:2911-2921) and LTC4 release (Malaviya et. al., 1993, J. Biol. Chem., 268:4939-4944) were quantitated.
# [1] = tested on: JAK3-dependent STAT activation; assay: EMSA, IL-2 triggered STAT activation in 32Dc11/IL2Rβ cells; type: cell-based
# Protocol: (§1) Electrophoretic Mobility Shift Assays (EMSAs). EMSAs were performed to examine the effects of dimethoxyquinazoline compounds on cytokine-induced STAT activation (Goodman et. al., 1998). […] Cells were collected after 15 minutes and resuspended in lysis buffer (100 mM Tris-HCl pH 8.0, 0.5% NP-40, 10% glycerol, […], 0.1 mM NaVO3, 50 mM NaF, 150 mM NaCl, 1 mM DTT, 3 μg/ml Aprotinin, 2 μg/ml Pepstatin A, 1 μg/ml Leupeptin and 0.2 mM PMSF). Lysates were precleared by centrifugation for 30 min. Cell extracts (approximately 10 μg) were incubated with 2 μg of poly(dI-dC) for 30 minutes, followed by a 30 minutes incubation with 1ng of poly. nucleotide kinase-^32P labeled double stranded DNA oligonucleotide representing the IRF-1 STAT DNA binding sequence (Santa Cruz Biotechnology, Santa Cruz, Calif.). Samples were resolved by non-denaturing PAGE and visualized by autoradiography.
# [2] = tested on: JAK1/JAK2-dependent STAT activation; assay: EMSA, IL-3 triggered STAT activation in 32Dc11/IL2Rβ cells; type: cell-based; conditions: 10 μg/ml
# Protocol: as §1
# BTK = biological target: T1, BTK (Homo sapiens, UniProt Q06187); assay: Immune complex kinase assay, BTK from Sf21 cells; type: biochemical; conditions: concentrations as high as 350 μM
# T1 construct: made in house; host or cells: Sf21 insect cells, baculovirus
# T1 sequence (Q06187 whole entry, species assumed): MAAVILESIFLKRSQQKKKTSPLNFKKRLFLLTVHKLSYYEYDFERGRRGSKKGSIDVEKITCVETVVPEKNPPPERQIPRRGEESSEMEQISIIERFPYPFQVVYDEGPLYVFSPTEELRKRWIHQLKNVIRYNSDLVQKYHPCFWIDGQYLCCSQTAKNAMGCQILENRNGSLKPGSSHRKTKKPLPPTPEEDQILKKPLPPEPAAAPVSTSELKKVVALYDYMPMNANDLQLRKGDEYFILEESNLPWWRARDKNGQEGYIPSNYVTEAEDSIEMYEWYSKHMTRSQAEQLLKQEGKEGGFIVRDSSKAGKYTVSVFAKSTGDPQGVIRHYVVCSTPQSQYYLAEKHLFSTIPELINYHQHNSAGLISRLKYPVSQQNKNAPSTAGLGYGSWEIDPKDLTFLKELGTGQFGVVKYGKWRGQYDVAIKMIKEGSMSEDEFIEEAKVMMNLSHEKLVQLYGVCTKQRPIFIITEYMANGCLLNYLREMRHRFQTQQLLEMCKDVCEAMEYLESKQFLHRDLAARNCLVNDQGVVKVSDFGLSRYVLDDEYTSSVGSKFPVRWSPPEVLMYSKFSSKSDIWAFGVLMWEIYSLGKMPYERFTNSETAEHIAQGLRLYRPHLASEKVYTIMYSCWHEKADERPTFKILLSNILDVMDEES
# Excerpt: Immune Complex Kinase Assays.
structure (smiles),measurement,setting,value
"COc1cc2ncnc(Nc3ccc(O)cc3)c2cc1OC [WHI-P131, 4-(4′-Hydroxylphenyl)-amino-6,7-dimethoxyquinazoline]",toxicity,"BALB/c mice; i.p. single bolus 0.5 mg/kg to 250 mg/kg, 30 day observation",not toxic
same,maximum tolerated dose (MTD),"BALB/c mice; i.p. single bolus, mice",> 250 mg/kg
same,histopathologic lesions in organs,BALB/c mice; mice killed at 30 days,No histopathologic lesions
same,"hematologic side effects (neutropenia, lymphopenia, anemia)","BALB/c mice; tested dose levels, mice",no hematologic side effects
same,LTC4 release,RBL-2H3 mast cells,near to complete inhibition
same,TNFα release,RBL-2H3 mast cells,near to complete inhibition
same,β-hexosaminidase release (degranulation),RBL-2H3 mast cells,near to complete inhibition
same,ionomycin induced nonspecific calcium responses,RBL-2H3 cells,not affected
same,calcium response to DNP-BSA,"RBL-2H3 cells; 30 μM, IgE-sensitized, Fluo-3 loaded",abrogated
same,release of LTC4,human mast cells,inhibited
same,release of β-tryptase,human mast cells,inhibited
same,JAK3-dependent STAT activation after stimulation with IL-2,"[1]; 10 μg/ml, 32Dc11/IL2Rβ cells",inhibited
same,IL-2 triggered JAK-3-dependent STAT activation,[1]; 100 μg/ml in FIG. 6E legend,inhibited
same,JAK1/JAK2-dependent STAT activation after stimulation with IL-3,[2],did not affect
same,effect on enzymatic activity of BTK,BTK,did not affect
